Patent US8741911B2, “Raf inhibitor compounds” (Eli Lilly and Company, priority 2012, dated 2014)
Where two headings read alike, the source gives them in different places.

Columns and labels:
[1] = tested on: phospho-ERK in A375 V600E cells; assay: SureFire phospho-ERK AlphaScreen cellular assay; format: cell-based; settings: Homo sapiens, A-375, 1 hour treatment
Method: (§1) A375 V600E, WM-266-4 V600E, HCT-116 K-Ras mutant B-Raf wild type are from ATCC. The cellular activities are assessed by an ELISA assay commercially available from TGR Biosciences to measure the phospho-ERK levels of each cell type.
(§2) The cells in each well are then lysed with 50 μl lysis buffer from TGR Biosciences. The phospho-ERK activities are determined with SureFire phospho-ERK AlphaScreen assay kit from TGR Biosciences per manufacturer's instruction.

[2] = tested on: phospho-ERK in A375 V600E-PLX4032 resistant cells (A375-res); assay: SureFire phospho-ERK AlphaScreen cellular assay; format: cell-based; settings: Homo sapiens, A-375, 1 hour treatment
Method: as §1, §2

[3] = tested on: phospho-ERK in HCT-116 (K-Ras mutant B-Raf wild type) cells; assay: SureFire phospho-ERK AlphaScreen cellular assay; format: cell-based; settings: Homo sapiens, 1 hour treatment
Method: as §1, §2

[4] = tested on: phospho-ERK in WM-266-4 V600E cells; assay: SureFire phospho-ERK AlphaScreen cellular assay; format: cell-based; settings: Homo sapiens, 1 hour treatment
Method: as §1, §2

[5] = tested on: A375 cells; assay: CellTiter-Blue A375 cell proliferation assay; format: cell-based; settings: Homo sapiens, A-375, read-out: Cell Proliferation Inhibition IC50
Method: (§3) Collection (ATCC, Manassas, Va.). Briefly, cells are grown in DMEM High Glucose supplemented with 10% characterized fetal bovine serum (Invitrogen, Carlsbad, Calif.) and 1% Penicillin/Streptomycin/L-Glutamine at 37 degrees Celsius, 5% CO2, and 95% humidity. Cells are allowed to expand until reaching 70-95% confluency at which point they are subcultured or harvested for assay use. A serial dilution of test compound is dispensed into a 384-well black clear bottom plate in triplicate. Six hundred twenty-five cells are added per well in 50 μL complete growth medium in the 384-well plate. Plates are incubated for 67 hours at 37 degrees Celsius, 5% CO2, and 95% humidity. At the end of the incubation period, 10 μL of a 440 μM solution of resazurin (Sigma, St. Louis, Mo.) in PBS is added to each well of the plate and plates are incubated for an additional 5 hours at 37 degrees Celsius, 5% CO2, and 95% humidity. Plates are read on a Synergy2 reader (Biotek, Winooski, Vt.) using an excitation of 540 nm and an emission of 600 nm. Data is analyzed using Prism software (Graphpad, San Diego, Calif.) to calculate IC50 values.
(§4) The A375, HT-29, and Colo-205 cells (ATCC) harbor a V600E mutation.

[6] = tested on: HT-29 cells; assay: CellTiter-Blue HT-29 cell proliferation assay; format: cell-based; settings: Homo sapiens; HT-29, CellTiter-Blue; read-out: Cell Proliferation Inhibition IC50
Method: as §3, with “HT-29 cells (catalog #HTB-38) are obtained from the American Type Culture Collection” for “Collection”, “in McCoy's 5A” for “in DMEM High Glucose”, “Carlsbad, Calif.),” for “Carlsbad, Calif.)”, “reaching 75-90%” for “reaching 70-95%”, “triplicate. One thousand two-hundred fifty” for “triplicate. Six hundred twenty-five”
as §4

[7] = tested on: A375; assay: CellTiter-Glo proliferation and viability assay; format: cell-based; settings: Homo sapiens
[8] = tested on: LOVO; assay: CellTiter-Glo proliferation and viability assay; format: cell-based; settings: Homo sapiens
[9] = tested on: NCI-H2030; assay: CellTiter-Glo proliferation and viability assay; format: cell-based; settings: Homo sapiens
[10] = tested on: HT-1080; assay: CellTiter-Glo proliferation and viability assay; format: cell-based; settings: Homo sapiens
[11] = tested on: LN 229; assay: CellTiter-Glo proliferation and viability assay; format: cell-based; settings: Homo sapiens
[12] = tested on: huH-1; assay: CellTiter-Glo proliferation and viability assay; format: cell-based; settings: Homo sapiens
[13] = tested on: NCI-H2009; assay: CellTiter-Glo proliferation and viability assay; format: cell-based; settings: Homo sapiens
[14] = tested on: LNCaP-Clone-FGC; assay: CellTiter-Glo proliferation and viability assay; format: cell-based; settings: Homo sapiens
[15] = tested on: MOLT-4; assay: CellTiter-Glo proliferation and viability assay; format: cell-based; settings: Homo sapiens
[16] = tested on: NCI-H1793; assay: CellTiter-Glo proliferation and viability assay; format: cell-based; settings: Homo sapiens
[17] = tested on: phospho-MEK and phospho-ERK in HCT-116 cells harboring B-Raf wild type and K-Ras mutation; assay: Immunoblotting (Western Blot) analysis, paradoxical pathway activation; format: cell-based, human
Method: Testing is carried out at doses of 0, and 11 serial dilutions ranging from 0.17 to 10000 nM. Protein lysates are generated by treatment of the cells with RIPA lysis buffer from Millipore. Western blotting analysis is performed substantially as described in Yadav et al, Molecular Carcinogenesis, 2011, 50: 346-52. Briefly, SDS-PAGE is performed on cell lysates containing 20 ug of total protein using 4-20% Novex® tri-glycine gradient gels (Invitrogen). Protein is transferred onto […] nitrocellulose membranes using NuPAGE® Transfer Buffer (Invitrogen) and 10% methanol at 100 V, 4° C. for 1 hr. Generally, the primary antibody is used at 1:1000 dilution, and secondary antibody at 1:20000 dilution. Proteins are detected using the Odyssey Infrared Imaging System (Li-COR Biosciences). Antibodies against ERK1/2, phospho-ERK1/2, phospho-MEK1/2, and actin are obtained from Cell Signaling Technology.
Testing is carried out at doses of 0, and 11 serial dilutions ranging from 0.17 to 10000 nM. The phospho-MEK and phospho-ERK activities were evaluated by Immunoblotting (Western Blot) analysis.

SMILES: CNc1ncc2cc(-c3cc(NC(=O)NCCC(C)(C)C)c(F)cc3C)c(C)nc2n1 [Example 1, 1-(3,3-Dimethylbutyl)-3-(2-fluoro-4-methyl-5-(7-methyl-2-(methylamino)pyrido[2,3-d]pyrimidin-6-yl)phenyl)urea]
- IC50 [1]: 3 nM
- IC50 [2]: 9.7 nM
- IC50 [3]: 133 nM
- IC50 [4]: 4.9 nM
- IC50 [5]: 9 nM
- IC50 [6]: 7 nM
- IC50 ([7]; A-375, A375, B-Raf V600E, melanoma): 9.2 nM
- IC50 ([7]; A-375, parental A375 B-Raf V600E cells, comparison with A375res): 11 nM
- IC50 ([8]; read-out: Abs IC50): 0.19 nM
- IC50 ([8]; read-out: Rel IC50): 0.12 nM
- IC50 ([9]; read-out: Abs IC50): 0.83 nM
- IC50 ([9]; read-out: Rel IC50): 0.41 nM
- IC50 ([10]; read-out: Abs IC50): 0.98 nM
- IC50 ([10]; read-out: Rel IC50): 0.5 nM
- IC50 ([11]; read-out: Abs IC50): 1.22 nM
- IC50 ([11]; read-out: Rel IC50): 1.08 nM
- IC50 ([12]; read-out: Abs IC50): 1.99 nM
- IC50 ([12]; read-out: Rel IC50): 0.59 nM
- IC50 ([13]; read-out: Abs IC50): 11.9 nM
- IC50 ([13]; read-out: Rel IC50): 1.58 nM
- IC50 ([14]; read-out: Abs IC50): > 20 nM
- IC50 ([14]; read-out: Rel IC50): 2.74 nM
- IC50 ([15]; read-out: Abs IC50): > 20 nM
- IC50 ([15]; read-out: Rel IC50): 1.21 nM
- IC50 ([16]; read-out: Abs IC50): > 20 nM
- IC50 ([16]; read-out: Rel IC50): 0.36 nM
- paradoxical pathway activation ([17]; HCT-116, B-Raf wild type and K-Ras mutation): minimal paradoxical pathway activation
- doses that substantially eliminate phospho-ERK signal ([17]; HCT-116, Western Blot): above 41 nM
